The results in this text go back to patent US20170156315A1, “METHODS AND COMPOSITIONS OF GRANULE FORMULATIONS” (AgroFresh Inc., priority 2010, published 2017).

The test system of the assay is rice plants. Kind of assay: Treatment of rice plants in open fields, yield. The assay is classed as in vivo. The following applies: rice field trial, single application of 50 g a.i./hectare 1-MCP with sample 7-3. From the text:
Assessment of Improvement to Crop Yield—Each treated plot is compared to an appropriate untreated control plot. The outcome is reported as “DY %” (Delta Yield Percent), which is defined as follows:
where YT=yield of the treated plot, and where YU=yield of the untreated plot. For example, DY of 10% means the treated plot has yield that is 10% higher than the untreated plot. Negative Delta Yield means that the treated rice has lower yield than the untreated crop.
Granule formulations of samples 7-3 and 7-4 are used to treat rice plants in open fields. Typical amount of 1-MCP treated range from 10 g active ingredient (a.i.)/hectare (or 4 g a.i./acre) to 100 g a.i./hectare (or 40 g a.i/acre).
Optimum phonological stages of the rice plants range from maximum tillering through grain filling (for example at least one of: meiosis, complete open of flower, and grain filling). Typically only a single treatment of 1-MCP is performed before harvest, but multiple treatments of 1-MCP before harvest can also be performed. Treatment(s) of 1-MCP on rice plants show yield increase ranging from 14% to 28%, depending on the amount of 1-MCP and stage of treatment(s). Data of a field trial using single application of 50 g a.i./hectare 1-MCP with sample 7-3 (a granule formulation containing 1% 1-MCP) are shown in Table 9

Several values for one entry are separate records, joined by “and”; a condition that tells them apart may be missing. Identical values can stand only once.

As for `CC1=CC1` [Sample 1-MCP, 1-methylcyclopropene], the “Yield (kg/ha)” value (individual treatments 8-1 to 8-4) was 7340 kg/ha and 7450 kg/ha and 7865 kg/ha and 7715 kg/ha. Moreover, where the note is “mean of treatments 8-1 to 8-4”, the “Mean (kg/ha)” value is 7592.5 kg/ha.
